Measurements taken from patent publication US10214546B2, “Btk inhibitors” (MERCK SHARP & DOHME CORP., priority 2014, dated 2019).
Read-outs that look alike come from different tables or passages of the source.

How the values were obtained:
[1] = biological target: BTK enzyme (recombinant full-length BTK, hBTK) (Homo sapiens (Human), UniProt Q06187); assay: BTK enzymatic activity LANCE TR-FRET assay; type: biochemical; conditions: 50 pM hBTK, 25 μM ATP, 2 μM biotin-A5-peptide; compound range 1 μM to 0.017 nM; read-out: BTK binding IC50
BTK enzyme (recombinant full-length BTK, hBTK), sequence (Q06187 whole entry): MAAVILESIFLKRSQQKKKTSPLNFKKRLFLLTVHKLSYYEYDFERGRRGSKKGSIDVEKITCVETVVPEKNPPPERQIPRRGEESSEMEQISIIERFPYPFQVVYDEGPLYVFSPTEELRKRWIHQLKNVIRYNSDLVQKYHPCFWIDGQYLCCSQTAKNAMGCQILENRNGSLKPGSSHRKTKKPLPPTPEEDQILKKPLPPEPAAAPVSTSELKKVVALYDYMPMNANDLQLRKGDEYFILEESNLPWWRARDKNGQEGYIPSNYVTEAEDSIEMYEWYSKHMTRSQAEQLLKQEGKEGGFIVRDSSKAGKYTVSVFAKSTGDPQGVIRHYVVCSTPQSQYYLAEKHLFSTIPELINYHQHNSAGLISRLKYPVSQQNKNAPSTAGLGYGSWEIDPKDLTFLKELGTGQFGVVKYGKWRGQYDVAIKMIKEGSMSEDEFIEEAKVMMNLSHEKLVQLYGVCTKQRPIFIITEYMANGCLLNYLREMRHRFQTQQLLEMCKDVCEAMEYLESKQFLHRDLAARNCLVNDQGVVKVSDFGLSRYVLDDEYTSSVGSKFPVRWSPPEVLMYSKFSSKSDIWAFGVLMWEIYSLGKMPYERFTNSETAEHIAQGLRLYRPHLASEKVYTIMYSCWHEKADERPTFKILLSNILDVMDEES
Experimental: Btk Enzyme Activity Assay Methods
BTK enzymatic activity was determined with the LANCE (Lanthanide Chelate Excite) TR-FRET (Time-resolved fluorescence resonance energy transfer) assay. […] Phosphorylation reactions were allowed to proceed for 120 minutes. […] After 60 minutes incubation with detection reagents, reaction plates were read on a PerkinElmer EnVision plate reader using standard TR-FRET protocol. […] IC50 values were determined by 4 parameter robust fit of TR-FRET ratio values vs. (Log10) compound concentrations.

[2] = test system: adenosine uptake into HeLa cells; assay: [3H]Adenosine uptake assay in HeLa cells; type: cell-based; conditions: [3H]adenosine accumulation in HeLa cells, compound range 10 μM to 0.032 nM, read-out: ADU inhibition IC50
Experimental: Compounds are also screened in an adenosine uptake functional cellular assay using the protocol described below:
[^3H]Adenosine Uptake Assay Methods
Adenosine uptake activity was determined by monitoring the accumulation of tritiated adenosine into HeLa cells (ATCC catalog # CCL-2) using a PMT-based radiometric detection instrument. In this assay, the potency (IC50) of each compound was determined from a ten point (1:3 serial dilution; final compound concentration range in assay from 10 µM to […]) titration curve using the following outlined procedure. To each well of a 96-well CytoStar-T scintillating microplate (Perkin Elmer Catalog # RPNQ0163), 25 000 HeLa cells in 100 µL of growth medium comprising: Minimum Essential Media (Life Technologies Catalog #11095-080)+10% (v/v) foetal bovine serum (FBS; Sigma Aldrich Catalog # F2442) was added. These cells were incubated overnight at 37° C. in a humidified atmosphere with 5% (v/v) CO2. After this time the growth medium was removed and replaced with 40 μL assay medium comprising: Hanks balanced salts solution (HBSS; Thermo Fisher Catalog # SH30268.01)+5% (v/v) FBS. Compound stock solutions in DMSO were diluted in assay medium to 2.5× final compound concentration maintaining a constant DMSO concentration of 0.25% (v/v). 40 μL of compound in assay medium was dispensed into individual wells of the Cytostar-T plates and the plates were incubated for 30 minutes under ambient laboratory conditions. Following this incubation, 20 μL of 500 nM [^3H] adenosine (American Radiolabeled Chemicals Inc. […] The amount of radiolabel accumulation was then determined using a Perkin Elmer Topcount NXT microplate reader. In brief, HeLa cells adhere to the bottom of the Cytostar-T plate, uptake of [^3H]adenosine into these cells brings the radiolabel into sufficient proximity to excite the scintillant in the base of the plates. These events are captured by single PMT, time-resolved coincidence counting. IC50 values were determined by 4 parameter robust fit of counts per second values vs. (Log10) compound concentrations.

| IC50 [1] | IC50 ([2]; Homo sapiens, HeLa) | IC50 [2] | Compound |
| --- | --- | --- | --- |
| 0.93 nM | 1250 nM |  | C[C@@](O)(c1ccc(-c2nc([C@@H]3CC[C@H]4CCC(=O)N4C3)n3ccnc(N)c23)cc1)c1cccc(-c2ccccc2)c1 [Example 59, (6R,8aS)-6-(8-amino-1-{4-[(1R)-1-biphenyl-3-yl-1-hydroxyethyl]phenyl}imidazo[1,5-a]pyrazin-3-yl)hexahydroindolizin-3(2H)-one] |
| 7 nM |  | 10000 nM | COc1cc(-c2nc([C@@H]3CC[C@H]4CCC(=O)N4C3)n3ccnc(N)c23)ccc1C(C)(O)c1cccc(C(F)(F)F)c1 (stereo partly drawn) [Example 65, (6R,8aS)-6-[8-amino-1-(4-{1-hydroxy-1-[3-(trifluoromethyl)phenyl]ethyl}-3-methoxyphenyl)imidazo [1,5-a]pyrazin-3-yl]hexahydroindolizin-3(2H)-one] |
| 0.15 nM | 1380 nM |  | CCc1cccc([C@](C)(O)c2ccc(-c3nc([C@@H]4CC[C@H]5CCC(=O)N5C4)n4ccnc(N)c34)cc2)c1 [Example 93, (6R,8aS)-6-(8-amino-1-(4-[(1R)-1-(3-ethylphenyl)-1-hydroxyethyl]phenyl}imidazo[1,5-a]pyrazin-3-yl)hexahydroindolizin-3(2H)-one] |
| 0.41 nM |  | 1350 nM | Nc1nccn2c([C@@H]3CC[C@H]4CCC(=O)N4C3)nc(-c3ccc(C(O)c4cccc(C(F)(F)F)c4)cc3)c12 (stereo partly drawn) [Example 73, (6R,8aS)-6-[8-amino-1-(4-{hydroxy[3-(trifluoromethyl)phenyl]methyl}phenyl)imidazo [1,5-a]pyrazin-3-yl]hexahydroindolizin-3(2H)-one] |
| 0.6 nM |  | 7030 nM | COc1cc(C(O)(c2cccc(C(F)F)c2)C(F)(F)F)ccc1-c1nc([C@@H]2CC[C@H]3CCC(=O)N3C2)n2ccnc(N)c12 (stereo partly drawn) [Example 211, (6R,8aS)-6-[8-amino-1-(4-{1-[3-(difluoromethyl)phenyl]-2,2,2-trifluoro-1-hydroxyethyl}-2-methoxyphenyl)imidazo [1,5-a]pyrazin-3-yl]hexahydroindolizin-3(2H)-one] |
| 23.4 nM | 3530 nM |  | C[C@@](O)(c1ccc(-c2nc([C@@H]3CC[C@H]4CCC(=O)N4C3)n3ccnc(N)c23)cc1)c1cccc(C#N)c1 [Example 85, 3-[(1R)-1-(4-{8-amino-3-[(6R,8aS)-3-oxooctahydroindolizin-6-yl]imidazo[1,5-a]pyrazin-1-yl}phenyl)-1-hydroxyethyl]benzonitrile] |
| 0.95 nM | 1700 nM |  | CC(C)(c1cccc([C@](C)(O)c2ccc(-c3nc([C@@H]4CC[C@H]5CCC(=O)N5C4)n4ccnc(N)c34)cc2)c1)C(F)(F)F [Example 110, (6R,8aS)-6-[8-amino-1-(4-{(1R)-1-hydroxy-1-[3-(2,2,2-trifluoro-1,1-dimethylethyl)phenyl]ethyl}phenyl)imidazo[1,5-a]pyrazin-3-yl]hexahydroindolizin-3(2H)-one] |
| 1000 nM | 2100 nM |  | CC(C)C(O)(c1ccc(-c2nc([C@@H]3CC[C@H]4CCC(=O)N4C3)n3ccnc(N)c23)cc1)c1cccc(C(F)(F)F)c1 (stereo partly drawn) [Example 76, (6R,8aS)-6-[8-amino-1-(4-{1-hydroxy-2-methyl-1-[3-(trifluoromethyl)phenyl]propyl}phenyl)imidazo [1,5-a]pyrazin-3-yl]hexahydroindolizin-3(2H)-one] |
| 0.18 nM | 1940 nM |  | C[C@@](O)(c1ccc(-c2nc([C@@H]3CC[C@H]4CCC(=O)N4C3)n3c(Cl)cnc(N)c23)cc1)c1cccc(CC(F)(F)F)c1 [Example 121, (6R,8aS)-6-[8-amino-5-chloro-1-(4-{(1R)-1-hydroxy-1-[3-(2,2,2-trifluoroethyl)phenyl]ethyl}phenyl)imidazo[1,5-a]pyrazin-3-yl]hexahydroindolizin-3(2H)-one] |
| 0.23 nM | 3210 nM |  | Cc1cccc([C@](C)(O)c2ccc(-c3nc([C@@H]4CC[C@H]5CCC(=O)N5C4)n4ccnc(N)c34)cc2)c1 [Example 46, (6R,8aS)-6-(8-amino-1-(4-[(1R)-1-hydroxy-1-(3-methylphenyl)ethyl]phenyl}imidazo[1,5-a]pyrazin-3-yl)hexahydroindolizin-3(2H)-one] |
| 1000 nM | 1220 nM |  | CC(O)(c1ccc(-c2nc([C@@H]3CC[C@H]4CCC(=O)N4C3)n3ccnc(N)c23)cc1)c1cc(C(F)(F)F)ccc1F (stereo partly drawn) [Example 145, (6R,8aS)-6-[8-amino-1-(4-{1-[2-fluoro-5-(trifluoromethyl)phenyl]-1-hydroxyethyl}phenyl)imidazo[1,5-a]pyrazin-3-yl]hexahydroindolizin-3(2H)-one] |
| 0.27 nM | 2140 nM |  | CC1(C)CC(=O)N2C[C@@H](c3nc(-c4ccc([C@@](C)(O)c5cccc(C(F)(F)F)c5)cc4)c4c(N)nccn34)CC[C@@H]21 [Example 161, (6S,8aR)-6-[8-amino-1-(4-{(1R)-1-hydroxy-1-[3-(trifluoromethyl)phenyl]ethyl}phenyl)imidazo [1,5-a]pyrazin-3-yl]-1,1-dimethylhexahydroindolizin-3(2H)-one] |
| 25 nM | 4760 nM |  | C[C@@](O)(c1ccc(-c2nc([C@@H]3CC[C@H]4CCC(=O)N4C3)n3ccnc(N)c23)cc1)c1cccc(C(F)(F)F)n1 [Example 138, (6R,8aS)-6-[8-amino-1-(4-{(1R)-1-hydroxy-1-[6-(trifluoromethyl)pyridin-2-yl]ethyl}phenyl)imidazo [1,5-a]pyrazin-3-yl]hexahydroindolizin-3(2H)-one] |
| 7.5 nM | 4270 nM |  | C[C@@](O)(c1ccc(-c2nc([C@H]3CN4C(=O)COC[C@@H]4CO3)n3ccnc(N)c23)cc1)c1cccc(C(F)(F)F)c1 [Example 176, (7R,9aR)-7-[8-amino-1-(4-{(1R)-1-hydroxy-1-[3-(trifluoromethyl)phenyl]ethyl}phenyl)imidazo [1,5-a]pyrazin-3-yl]tetrahydro-1H-[1,4]oxazino[3,4-c][1,4]oxazin-4(3H)-one] |
| 2.5 nM | 3300 nM |  | Cc1ccccc1[C@](C)(O)c1ccc(-c2nc([C@@H]3CC[C@H]4CCC(=O)N4C3)n3ccnc(N)c23)cc1 [Example 48, (6R,8aS)-6-(8-amino-1-{4-[(1R)-1-hydroxy-1-(2-methylphenyl)ethyl]phenyl}imidazo[1,5-a]pyrazin-3-yl)hexahydroindolizin-3(2H)-one] |
| 9.6 nM | 608 nM |  | CC(C)(C)c1cccc([C@@](C)(O)c2ccc(-c3nc([C@@H]4CC[C@H]5CCC(=O)N5C4)n4ccnc(N)c34)cc2)c1 [Example 39, (6R,8aS)-6-(8-amino-1-{4-[(1S)-1-(3-tert-butylphenyl)-1-hydroxyethyl]phenyl}imidazo[1,5-a]pyrazin-3-yl)hexahydroindolizin-3(2H)-one] |
| 1000 nM |  | 535 nM | Cc1cc(-c2nc([C@@H]3CC[C@H]4CCC(=O)N4C3)n3ccnc(N)c23)ccc1C(C)(O)c1cccc(C(F)(F)F)c1 (stereo partly drawn) [Example 43, (6R,8aS)-6-[8-amino-1-(4-{1-hydroxy-1-[3-(trifluoromethyl)phenyl]ethyl}-3-methylphenyl)imidazo [1,5-a]pyrazin-3-yl]hexahydroindolizin-3(2H)-one] |
| 884 nM | 405 nM |  | C[C@@](O)(c1ccc(-c2nc([C@@H]3CC[C@H]4CCC(=O)N4C3)n3ccnc(N)c23)cc1)c1cccc(C(F)(F)F)c1 [Example 3, (6R,8aS)-6-(8-amino-1-(4-((R)-1-hydroxy-1-(3-(trifluoromethyl)phenyl)ethyl)phenyl)imidazo[1,5-a]pyrazin-3-yl)hexahydroindolizin-3(2H)-one] |
| 0.17 nM | 2850 nM |  | C[C@@](O)(c1ccc(-c2nc([C@@H]3CC[C@H]4CCC(=O)N4C3)n3ccnc(N)c23)cc1)c1cccc(CC(F)(F)F)c1 [Example 78, (6R,8aS)-6-[8-amino-1-(4-{(1R)-1-hydroxy-1-[3-(2,2,2-trifluoroethyl)phenyl]ethyl}phenyl)imidazo[1,5-a]pyrazin-3-yl]hexahydroindolizin-3(2H)-one] |
| 888 nM |  | 701 nM | CC(O)(c1ccc(-c2nc([C@@H]3CC[C@H]4CCC(=O)N4C3)n3ccnc(N)c23)cc1)C1CC2CCC1CC2 (stereo partly drawn) [Example 149, (6R,8aS)-6-{8-amino-1-[4-(1-bicyclo[2.2.2]oct-2-yl-1-hydroxyethyl)phenyl]imidazo[1,5-a]pyrazin-3-yl}hexahydroindolizin-3(2H)-one] |
